Results taken from publication PMC4730117, “In vitro Biochemical Characterization of All Barley Endosperm Starch Synthases” (Frontiers in Plant Science, 2016).

What was measured:
HvSSI = biological target: T1, HvSSI (Hordeum vulgare, UniProt Q9M5A3); assay: biochemical; design: Thermofluor (differential scanning fluorimetry, Sypro orange), shift of melting temperature of HvSSI versus no additive; conditions: 0.1 mg/mL HvSSI, 1X Sypro orange, 20 mM Tris pH 8.0, 100 mM NaCl, read-out: Δ Tm to reference; for ΔTm at 10000 µM: 10 mM
T1 construct: gene SSI; without predicted chloroplast transit peptide, N-terminal His-tag, codon-optimised, E. coli
T1 sequence (Q9M5A3 32-643): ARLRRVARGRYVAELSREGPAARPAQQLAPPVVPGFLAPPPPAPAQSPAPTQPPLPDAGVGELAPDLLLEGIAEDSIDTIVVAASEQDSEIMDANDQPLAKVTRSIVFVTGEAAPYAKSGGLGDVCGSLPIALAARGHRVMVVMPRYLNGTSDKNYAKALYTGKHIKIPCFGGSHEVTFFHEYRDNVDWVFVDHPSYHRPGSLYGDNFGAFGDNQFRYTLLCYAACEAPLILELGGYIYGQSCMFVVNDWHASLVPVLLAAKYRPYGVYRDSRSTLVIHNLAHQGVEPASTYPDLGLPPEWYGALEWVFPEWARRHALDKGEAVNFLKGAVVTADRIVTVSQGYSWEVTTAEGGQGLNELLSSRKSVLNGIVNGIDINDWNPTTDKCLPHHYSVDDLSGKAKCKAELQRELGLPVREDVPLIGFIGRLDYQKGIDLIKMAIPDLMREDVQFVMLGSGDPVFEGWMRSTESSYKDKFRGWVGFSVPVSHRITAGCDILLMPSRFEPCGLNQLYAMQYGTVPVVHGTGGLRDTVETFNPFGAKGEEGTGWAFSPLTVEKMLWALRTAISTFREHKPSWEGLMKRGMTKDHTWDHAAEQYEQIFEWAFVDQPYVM
Procedure: HvSSI unfolding temperatures were measured with a variant of the Thermofluor method (Niesen et al., [2007]). Details are given in S.I. The effect of additives on SSI stability was studied in some detail with the thermofluor assay; details for many additives are given in S.I. The strongest effects were from sugars, which increased protein stability by 1°C for every 50 mM hexose present as oligosaccharides, with glucose and other monosaccharides having only half the effect.

[1] = substrate: Nc1ncnc2c1ncn2[C@@H]1O[C@H](COP(=O)(O)OP(=O)(O)O[C@H]2O[C@H](CO)[C@@H](O)[C@H](O)[C@H]2O)[C@@H](O)[C@H]1O; assay: coupled spectrophotometric assay (pyruvate kinase / lactate dehydrogenase, NADH); format: biochemical, Hordeum vulgare; conditions: 10 mM maltotriose acceptor, 50 mM Bicine pH 8.5, 25 mM KOAc, 2 mM MgCl2, 37°C
Excerpt: coupled spectrophotometric assay (pyruvate kinase / lactate dehydrogenase, NADH) on HvSSIIIb

[2] = substrate: Nc1ncnc2c1ncn2[C@@H]1O[C@H](COP(=O)(O)OP(=O)(O)O[C@H]2O[C@H](CO)[C@@H](O)[C@H](O)[C@H]2O)[C@@H](O)[C@H]1O; assay: as above; format: biochemical, Hordeum vulgare; conditions: 10 mM maltotriose acceptor, 50 mM Bicine pH 8.5, 25 mM KOAc, 2 mM MgCl2, 37°C; remark: listed apart in the source
Excerpt: coupled spectrophotometric assay (pyruvate kinase / lactate dehydrogenase, NADH) on […]

[3] = substrate: Nc1ncnc2c1ncn2[C@@H]1O[C@H](COP(=O)(O)OP(=O)(O)O[C@H]2O[C@H](CO)[C@@H](O)[C@H](O)[C@H]2O)[C@@H](O)[C@H]1O; assay: as above; format: biochemical, Hordeum vulgare; conditions: 100 mM maltose (DP = 2) acceptor, 50 mM Bicine pH 8.5, 25 mM KOAc, 2 mM MgCl2, 37°C
Excerpt: coupled spectrophotometric assay (pyruvate kinase / lactate dehydrogenase, NADH) on HvGBSSI

[4] = substrate: Nc1ncnc2c1ncn2[C@@H]1O[C@H](COP(=O)(O)OP(=O)(O)O[C@H]2O[C@H](CO)[C@@H](O)[C@H](O)[C@H]2O)[C@@H](O)[C@H]1O; assay: as above; format: biochemical, Hordeum vulgare; conditions: 10 mM maltotriose acceptor, 50 mM Bicine pH 8.5, 25 mM KOAc, 2 mM MgCl2, 37°C; remark: listed apart in the source
Excerpt: coupled spectrophotometric assay (pyruvate kinase / lactate dehydrogenase, NADH) on HvSSI

## OC[C@H]1O[C@H](O[C@H]2[C@H](O)[C@@H](O)C(O)O[C@@H]2CO)[C@H](O)[C@@H](O)[C@@H]1O (mixture of isomers) [maltose]
HvSSI
  ΔTm at 10000 µM: 0.3 °C

## C[C@H]1O[C@H](O[C@H]2[C@H](O)[C@@H](O)[C@@H](O[C@H]3[C@H](O)[C@@H](O)C(O)O[C@@H]3CO)O[C@@H]2CO)[C@H](O)[C@@H](O)[C@@H]1N[C@H]1C=C(CO)[C@@H](O)[C@H](O)[C@H]1O (stereo partly shown) [acarbose]
HvSSI
  ΔTm at 10000 µM: 0.4 °C

## OC[C@H]1O[C@H](O[C@H]2[C@H](O)[C@@H](O)[C@@H](O[C@H]3[C@H](O)[C@@H](O)[C@@H](O[C@H]4[C@H](O)[C@@H](O)[C@@H](O[C@H]5[C@H](O)[C@@H](O)C(O)O[C@@H]5CO)O[C@@H]4CO)O[C@@H]3CO)O[C@@H]2CO)[C@H](O)[C@@H](O)[C@@H]1O (stereo partly shown) [maltopentaose]
HvSSI
  ΔTm at 10000 µM: 1.3 °C

## OC[C@H]1OC(O)[C@H](O)[C@@H](O)[C@@H]1O (stereo partly shown) [glucose]
HvSSI; 100 mM
  ΔTm at 100000 µM: 1 °C

## OCC1OC(OC2C(CO)OC(OC3C(CO)OC(OC4C(CO)OC(OC5C(CO)OC(OC6C(CO)OC(OC7C(CO)OC(OC8C(CO)OC(O)C(O)C8O)C(O)C7O)C(O)C6O)C(O)C5O)C(O)C4O)C(O)C3O)C(O)C2O)C(O)C(O)C1O (stereo not shown) [maltooctaose]
HvSSI
  ΔTm at 10000 µM: 2 °C

B1: HvSSIIIb (Hordeum vulgare subsp. vulgare) (protein)
chain: SSDYPKRNPRRSSAPKPKGTASRGYAPRPSAESWTSTKKIEHGSADEDGDLGRSNGTLSGDATEQASTAEEESEVEFAGNVSSSAGLEGVAETEKEADQNQLPALSSTSMDVESVNEATEQTIIGDESSVVDFSGNVSGSVALEVVDESETEEEADQKQSSSLASTSMDSESIDRELEGYRARINALVGASTQEQDRSIIGVHDQDKSVISPNEQDISAVDVPEQGLSGVGVTREDPTKQTTSKQEITEAAVEEISSKNFVARKHSISGDGVEASKNANQQPLVDGDELKITEDEEQHEPEMQEYVRKDVDLQALKRRLEELADGNYSIGNKCFVFPELVKADSVIDLYLNRSMSALASEPDILIKGAFNGWRWNHFTERLHKSELSGDWWCCKLYIPKQAYRLDFVFFNGDTVYENNSYNDFVLHIESDIDEHSFEDFLLEEKQRELERLAAEEAERERQAEEERRKEEERAAMEADRAQAKAEVEMTRNNLQHVLGLASRYANNLWYIEPNTYKGGDRVRLYYNRSSGPLKHKNEIWLHGSYNNWTDGPSIVERLVKSDEQDGDWWYANVTLPESALVLDWVFADGPPGNARKYDNNGKRDFHAAVSKSISEDLFWVKEEHRIFERLQRERKEKEDAGRRKAEITARMKAEMKEKTMREFLLSQKHIVYTEPLEVRAGMTVDVLYNPSNTVLNGSPEVWFRCSFNRWTHPSGPLPPQKMVNAENGSHLQATVRVPLDAYMMDFVFSESEEGGMYDNRDGMDYHIPVSDSMAKEPPMHIVHIAVEMAPIAKVGGLGDVVTSLSRAIQDLGHKVEVVFPKYDCLNLSNVKDLHCRQSFTWGGTEIKVWFGKVEGISVYFLEPQNGMFWVGCVYGRNDESRFGFFCHSALEFLLQSGSSPDIIHCHDWSSAPVAWLYKQHYVHNGLPNGRVVFTIHNLEFGVHHIGKAMAHCDKATTVSYTYSKEVSGHGSIAPHYFKFHGIRNGIDSDIWDPYNDNFIPVHYTSENVVEGKSSAKRALQEKLGLHQTDSPLVGIISRLTAQKGIHLIKHAIYRTLERNGQVVLLGSAPDHRIQGDFSNLASKLHGEFDGRVKLCLTYDEPLSHLIYAGADFILVPSIFEPCGLTQLTAMRYGSIPIVRKTGGLYDTVFDVDDDKDRAREQGLEPNGFSFEGADSNGVDYALDRAITTWYDARGWFHSLCKRVMEQDWSWNRPALDYMELYHSARKN
notes: without predicted chloroplast transit peptide, N-terminal His-tag, codon-optimised, E. coli
[1]
  Km: 0.44 ± 0.04 mM
  kcat: >740 turnovers·min^-1 (DP = 3)

B2: HvSSIV (Hordeum vulgare subsp. vulgare) (protein)
chain: QQRPQRSTAGADHLNTAANVRSDEAAVSAEKERQRKYSDGDGISNLQLEDLVEMIQNTEKNILLLNQARLQAMERADKILKEKEALQRKISILETRLSETDAQHKLSSEGNFSESPLALEFDVLKEENILLKEDIEFFKSKLIEVAKTEEGIFKLEKERALLDASLRELESRFIAAQADMMKLGPRDAWWEKVEKLEDLLETTANQVERAAVILDNNHDLQDKLDKLVASLQAANISKFSSSLVDLLQQKVKLVEERFQACNREMHSQIKLYEHSIVEFHDTLSKLIEESEKRSLENFTGNMPSELWSKISLLIDGWLLEKKISYNDASLLREMVRKRDSRLREAYLSYRGTENREVMDNFLKMALPGTSSGLHIAHIAAEMAPVAKVGGLADVISGLGKALQKKGHLVEIILPKYDCMQVDQVSNLKVLDVPVQSYFEGNMFDNKIWTGTVEGLPVYFIEPQHPAMFFSRAQYYGEHDDFKRFTYFSRAALELLYQSGKKVDIIHCHDWQTAFVAPLYWDVYANLGFNSARICFTCHNFEYQGTAPARDLAWCGLDVEHLDRPDRMRDNSHGRINAVKGAVVYSNIVTTVSPTYALEVLSQGGRGLQDTLKVHSRKFLGILNGIDTDTWNPSTDRYLKVQYNAKDLQGKAANKAALREQLNLASAYPSQPLVGCITRLVAQKGVHLIRHAIYKTAELGGQFVLLGSSPVPEIQREFEGIADHFQDNNNIRLILKYDDALSHCIYAASDMFIVPSIFEPCGLTQMIAMRYGSVPIVRKTGGLNDSVFDFDDETIPVEVRNGFTFVKADEQGLSSAMERAFNCYTRKPEVWKQLVQKDMTIDFSWDTSASQYEDIYQKAVARARAAA
notes: without predicted chloroplast transit peptide, C-terminal His-tag, codon-optimised, E. coli
[2]
  Km: 0.31 ± 0.02 mM

B3: HvGBSSI (Hordeum vulgare) (protein)
chain: ATGSGMNLVFVGAEMAPWSKTGGLGDVLGGLPPAMAANGHRVMVVSPRYDQYKDAWDTSVISEIKVADEYERVRFFHCYKRGVDRVFIDHPWFLEKVRGKTKEKIYGPDAGTDYEDNQQRFSLLCQAALEAPRILNLNNNPYFSGPYGEDVVFVCNDWHTGLLACYLKSNYQSNGIYRTAKVAFCIHNISYQGRFSFDDFAQLNLPDRFKSSFDFIDGYDKPVEGRKINWMKAGILQADKVLTVSPYYAEELISGEARGCELDNIMRLTGITGIVNGMDVSEWDPTKDKFLAVNYDITTALEAKALNKEALQAEVGLPVDRKVPLVAFIGRLEEQKGPDVMIAAIPEILKEEDVQIILLGTGKKKFEKLLKSMEEKFPGKVRAVVRFNAPLAHQMMAGADLLAVTSRFEPCGLIQLQGMRYGTPCVCASTGGLVDTIVEGKTGFHMGRLSVDCNVVEPADVKKVATTLKRAVKVVGTPAYQEMVKNCMIQDLSWKGPAKNWEDVLLELGVEGSEPGIVGEEIAPLAMENVAAP
notes: as for B1
[3]
  Km: 0.09 ± 0.02 mM

B4: HvSSI (Hordeum vulgare) (protein)
chain: ARLRRVARGRYVAELSREGPAARPAQQLAPPVVPGFLAPPPPAPAQSPAPTQPPLPDAGVGELAPDLLLEGIAEDSIDTIVVAASEQDSEIMDANDQPLAKVTRSIVFVTGEAAPYAKSGGLGDVCGSLPIALAARGHRVMVVMPRYLNGTSDKNYAKALYTGKHIKIPCFGGSHEVTFFHEYRDNVDWVFVDHPSYHRPGSLYGDNFGAFGDNQFRYTLLCYAACEAPLILELGGYIYGQSCMFVVNDWHASLVPVLLAAKYRPYGVYRDSRSTLVIHNLAHQGVEPASTYPDLGLPPEWYGALEWVFPEWARRHALDKGEAVNFLKGAVVTADRIVTVSQGYSWEVTTAEGGQGLNELLSSRKSVLNGIVNGIDINDWNPTTDKCLPHHYSVDDLSGKAKCKAELQRELGLPVREDVPLIGFIGRLDYQKGIDLIKMAIPDLMREDVQFVMLGSGDPVFEGWMRSTESSYKDKFRGWVGFSVPVSHRITAGCDILLMPSRFEPCGLNQLYAMQYGTVPVVHGTGGLRDTVETFNPFGAKGEEGTGWAFSPLTVEKMLWALRTAISTFREHKPSWEGLMKRGMTKDHTWDHAAEQYEQIFEWAFVDQPYVM
notes: as for B1
[4]
  Km: 0.63 ± 0.02 mM
